Earlier results in patent publication US8648203B2 (priority 2005, dated 2014).

Tested on: benzimidazole and/or dicarboximide resistant strains of B. cinerea

Which “activity against resistant strains of B. cinerea” value does the source give for O=[N+]([O-])c1cc(C(F)(F)F)c(Cl)c([N+](=O)[O-])c1Nc1ncc(C(F)(F)F)cc1Cl [fluazinam, 3-chloro-N-(3-chloro-5-trifluoromethyl-2-pyridyl)-α,α,α-trifluoro-2,6-dinitro-p-toluidine] here?
Its value is “good activity”.
